Reference: patent US5654296A, “Condensed heterocyclic compounds, their production and use” (priority 1994, dated 1997)
Where a name gives a salt, the structure may show the parent alone.

Tests used:
[1] = biological target: T1, GnRH receptors (bovine pituitary anterior lobe membrane fraction) (Bos taurus, UniProt P32236); assay: 125I-leuprolerin GnRH receptor binding inhibition test, bovine pituitary anterior lobe membrane fraction; details: 4° C., 90 minutes, read-out: Binding inhibitory activity (IC50 μM) Bovine
T1 construct: A bovine pituitary anterior lobe membrane fraction containing GnRH receptors was prepared; from tissue; host or cells: bovine pituitary anterior lobe, membrane fraction
T1 sequence (P32236 1-328): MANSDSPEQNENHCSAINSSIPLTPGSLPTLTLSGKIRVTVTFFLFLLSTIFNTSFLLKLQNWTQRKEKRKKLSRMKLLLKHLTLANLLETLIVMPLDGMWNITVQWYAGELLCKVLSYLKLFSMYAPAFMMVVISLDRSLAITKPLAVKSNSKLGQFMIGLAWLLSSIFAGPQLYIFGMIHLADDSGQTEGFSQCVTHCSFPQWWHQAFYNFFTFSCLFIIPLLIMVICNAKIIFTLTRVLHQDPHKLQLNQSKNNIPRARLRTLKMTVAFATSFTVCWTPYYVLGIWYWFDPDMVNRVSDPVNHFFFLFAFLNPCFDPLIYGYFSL
Method: Ten (10) μl of 3×10^4 M aqueous leuprolerin solution and 10 μl of 0.01 mg/ml lactoperoxidase were taken in a tube and 10 μl of Na^125 I solution (37 MBq) was added. After stirring, 10 μl of 0.001% H2 O2 was added and the reaction was conducted at room temperature for 20 minutes. Then, 700 μl of 0.05% TFA solution was added to the tube to terminate the reaction and the reaction mixture was purified by reverse-phase HPLC. The HPLC conditions are shown below. ^125 I-leuprolerin was eluted after a retention time of 26-27 minutes. (C) Preparation of a Bovine Pituitary Anterior Lobe Membrane Fraction Containing GnRH Receptors A bovine pituitary anterior lobe membrane fraction containing GnRH receptors was prepared by the same procedure as described under (B). However, a 10,000×G centrifugation supernatant was recentrifuged at 100,000×G for 1 hour to provide the membrane fraction pellet. […] For the rat and human membrane fractions prepared in (B) and (D), each membrane fraction was diluted with assay buffer to a concentration of 200 μg/ml and distributed in 188 μl portions into tubes. As to the bovine membrane fraction prepared in (C), the membrane fraction was diluted with assay buffer to 750 μg/ml and distributed in 188 μl portions into tubes. […] Where the rat or bovine pituitary anterior lobe membrane fraction was used, the reaction was conducted at 4° C. for 90 minutes. Where the membrane fraction of the CHO with human GnRH receptors expressed was used, the reaction was carried out at 25° C. for 60 minutes. […] After filtration, the radioactivity of ^125 I-leuprolerin remaining on the filter was measured with a γ-counter. The expression (TB-SB)/(TB-NSB)×100 (where SB=radioactivity with the compound added, TB=maximum bound radioactivity, NSB=nonspecifically bound radioactivity) was calculated to find the binding inhibition rate of each test compound.

human GnRH receptors = biological target: T2, human GnRH receptors (Homo sapiens, UniProt P30968); assay: 125I-leuprolerin GnRH receptor binding inhibition test, human (CHO cell membrane fraction); details: human GnRH receptors expressed in CHO cells, 25° C., 60 minutes, read-out: Binding inhibitory activity (IC50 μM) Human
T2 construct: expressed in transfected cells; host or cells: CHO (Chinese hamster ovary) cells, membrane fraction
T2 sequence (P30968 1-328): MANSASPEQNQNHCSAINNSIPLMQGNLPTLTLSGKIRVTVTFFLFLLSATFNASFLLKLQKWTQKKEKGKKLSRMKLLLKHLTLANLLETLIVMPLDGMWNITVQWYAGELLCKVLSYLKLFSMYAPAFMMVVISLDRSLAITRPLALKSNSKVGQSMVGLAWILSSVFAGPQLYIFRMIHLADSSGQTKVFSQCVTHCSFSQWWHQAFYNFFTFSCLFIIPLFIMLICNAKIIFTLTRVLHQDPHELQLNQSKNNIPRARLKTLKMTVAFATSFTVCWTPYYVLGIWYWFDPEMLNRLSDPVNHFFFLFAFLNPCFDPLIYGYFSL
Method: Ten (10) μl of 3×10^4 M aqueous leuprolerin solution and 10 μl of 0.01 mg/ml lactoperoxidase were taken in a tube and 10 μl of Na^125 I solution (37 MBq) was added. After stirring, 10 μl of 0.001% H2 O2 was added and the reaction was conducted at room temperature for 20 minutes. Then, 700 μl of 0.05% TFA solution was added to the tube to terminate the reaction and the reaction mixture was purified by reverse-phase HPLC. The HPLC conditions are shown below. ^125 I-leuprolerin was eluted after a retention time of 26-27 minutes. (D) Preparation of a CHO (Chinese Hamster Ovarian) Cell Membrane Fraction Containing Human GnRH Receptors […] To the cell pellet was added 10 ml of cell homogenate buffer (10 mM NaHCO3, 5 mM EDTA, pH 7.5) and the mixture was homogenized using a Polytron homogenizer. The homogenate was centrifuged at 400×G for 15 minutes. The supernatant was taken in an ultracentrifuge tube and centrifuged at 100,000×G for 1 hour to provide a membrane fraction pellet. […] After filtration, the radioactivity of ^125 I-leuprolerin remaining on the filter was measured with a γ-counter. The expression (TB-SB)/(TB-NSB)×100 (where SB=radioactivity with the compound added, TB=maximum bound radioactivity, NSB=nonspecifically bound radioactivity) was calculated to find the binding inhibition rate of each test compound.

Row | Compound | IC50 [1] [µM] | IC50 (human GnRH receptors) [µM]
1 | c1ccc(CCNCCCC2(c3ccccc3)COCc3ccccc32)cc1 (stereo not drawn) [Example I-24, 4-[3-(β-Phenethylamino)propyl]-4-phenylisochroman hydrochloride] | 7 | 
2 | c1ccc(C2(CCCN3CCCCC34CCc3ccccc3C4)COCc3ccccc32)cc1 (stereo not shown) [Example I-35, 3,4-Dihydro-1'-[3-(4-phenylisochroman-4-yl)propyl]spiro[naphthalene-2(1H),2'-piperidine] hydrochloride] | 6 | 
3 | COc1ccc2c(c1)CCC1(CCCCN1CCCC1(c3ccccc3)COCc3ccccc31)C2 (stereo not shown) [Example I-36, 3,4-Dihydro-6-methoxy-1'-[3-(4-phenylisochroman-4-yl)propyl]spiro[naphthalene-2(1H),2'-piperidine] hydrochloride] | 11 | 
4 | COC(=O)c1cccc(CNCCCC2(c3ccccc3)COCc3ccccc32)c1 (stereo not drawn) [Example I-45, Methyl α-[3-(4-Phenylisochroman-4-yl)propylamino]-m-toluate hydrochloride] | 5 | 6
5 | COc1cc2c(cc1OC)CC1(CCCCN1CCCCC1(c3ccccc3)COCc3ccccc31)CC2 (stereo not shown) [Example I-52, 3,4-Dihydro-6,7-dimethoxy-1'-[4-(4-phenylisochroman-4-yl)butyl]spiro[naphthalene-2(1H),2'-piperidine] hydrochloride] | 5 | 6
